Assay: Gamma radiation resistance of gel formulas (Rounds 1-5)
Assay type: physicochemical
Details: Round 1; summary in words
Excerpt: Following several failed attempts to formulate a composition with suitable viscosity and other properties to function as a burn treatment, the Inventors obtained stable compositions which were sent for testing to assess stability under gamma radiation.
OVERVIEW: To incorporate: Polyaminopropyl biguanide (INCI name); Chemical name: Polyhexamethylene Biguanide Hydrochloride (PHMB) and later Oriel sea mineral complex into a gel formula that can withstand the impact of gamma radiation sterilisation.
5 rounds of formulas were sent out for gamma radiations as outlined below.
Round 1 Summary: Started with our current BD (Burn Dressing) Gel with hyaluronic acid (HA) formula to which various ingredients were added.
Carbopol is the thickening agent used in BD Gel with HA, the only experiment in round 1 to which PHMB was added.
Round 2 Summary: Since PHMB was incompatible with Carbopol, new formulas containing various other thickeners were tried. Since propylene glycol, a humectant helped, another humectant (propanediol) was tried. For all the experimental batches made, only the stable formulas were sent out for gamma radiation. Only some of round 2 formulas contain PHMB (20% solution) @0.2% […]
In round 5, the final formula was determined from a selection of which were sent out for gamma radiation with acceptable results. […]

CC(O)CO (stereo not shown) [propylene glycol, 1,2-Propanediol]
Change following gamma radiation: little or no change

Source: patent publication US11040066B2, “Topical composition for use in the treatment of burns” (Safeguard Medical Holdco, LLC, priority 2017, dated 2021)
